Experimental data published in article PMC9421653 (Journal of Medicinal Chemistry, 2022).
Values after ≈ are worked out from the molar mass of the structure shown.

Key:
physchem = settings: pH 7.4, Kinetic Solubility
From the text: DPI = 4,5-Diphenylimidazole
(2 pictures or pasted objects on this page, not shown here)

human GPR84 [1] = molecular target: T1, human GPR84 (Homo sapiens, UniProt Q9NQS5); test: biochemical; assay type: biochemical; settings: [35S]GTPγS assay; negative log of the IC50 in molar; mean ± SEM; read-out: GTPγS (pIC50) (converted)
T1 construct: expressed in transfected cells; host or cells: Flp-In T-REx 293 cells, doxycycline-induced; membrane preparations

human GPR84 [2] = molecular target: T2, human GPR84 (Homo sapiens, UniProt P04899+Q9NQS5); test: biochemical; assay type: biochemical; settings: for LLE: LLE = pIC50 – CLog P; for GTPγS (pIC50): [35S]GTPγS assay, negative log of the IC50 in molar, mean ± SEM
T2 construct: expressed in transfected cells; host or cells: Flp-In T-REx 293 cells, doxycycline-induced; membrane preparations

[3] = Mean, PBS pH7.4 in 2% DMSO by LC-MS
[4] = Mean, PBS pH7.4 in 2% DMSO by plate reader
[5] = R=1, PBS pH7.4 in 2% DMSO by LC-MS, replicate 1
[6] = R=1, PBS pH7.4 in 2% DMSO by plate reader, replicate 1
[7] = R=2, PBS pH7.4 in 2% DMSO by LC-MS, replicate 2
[8] = R=2, PBS pH7.4 in 2% DMSO by plate reader, replicate 2

T1 sequence (Q9NQS5+P04899 fused): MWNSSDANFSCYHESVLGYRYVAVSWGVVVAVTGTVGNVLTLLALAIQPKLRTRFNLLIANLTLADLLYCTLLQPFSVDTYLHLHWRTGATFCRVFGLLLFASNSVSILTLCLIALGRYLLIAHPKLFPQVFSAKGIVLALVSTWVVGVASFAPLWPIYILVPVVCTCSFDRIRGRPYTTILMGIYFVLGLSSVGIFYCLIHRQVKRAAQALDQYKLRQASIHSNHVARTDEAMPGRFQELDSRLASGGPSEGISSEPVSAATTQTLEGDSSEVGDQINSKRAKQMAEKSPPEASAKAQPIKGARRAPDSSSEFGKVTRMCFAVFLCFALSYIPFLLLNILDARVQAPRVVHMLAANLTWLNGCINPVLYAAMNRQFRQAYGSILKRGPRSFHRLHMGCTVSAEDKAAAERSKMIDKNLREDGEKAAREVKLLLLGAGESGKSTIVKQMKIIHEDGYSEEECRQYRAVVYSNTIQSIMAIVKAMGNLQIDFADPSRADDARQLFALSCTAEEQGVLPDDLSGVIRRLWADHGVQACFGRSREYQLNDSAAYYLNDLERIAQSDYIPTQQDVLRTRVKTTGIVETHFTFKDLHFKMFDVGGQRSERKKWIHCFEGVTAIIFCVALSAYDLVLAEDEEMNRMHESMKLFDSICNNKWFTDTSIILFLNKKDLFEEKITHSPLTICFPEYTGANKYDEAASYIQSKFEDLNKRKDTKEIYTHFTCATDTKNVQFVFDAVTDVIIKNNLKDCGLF
T2 sequence (Q9NQS5+P04899 fused): as above

Compound	IC50 (human GPR84 [1]) [nM]	GTPγS (pIC50) (human GPR84 [2])	further results
CC(=O)N1CCN(c2ccc(OCC3COC(Cn4ccnc4)(c4ccc(Cl)cc4Cl)O3)cc2)CC1 (centres unmarked) [Ketoconazole, reference compound]	–	–	solubility kinetic (physchem; [3]): 103 µM (≈ 54.7 µg/mL); solubility kinetic (physchem; [4]): 129 µM (≈ 68.6 µg/mL); solubility kinetic (physchem; [5]): 101 µM (≈ 53.7 µg/mL); solubility kinetic (physchem; [6]): 128 µM (≈ 68 µg/mL); solubility kinetic (physchem; [7]): 105 µM (≈ 55.8 µg/mL); solubility kinetic (physchem; [8]): 129 µM (≈ 68.6 µg/mL)
O=C(NCCO)c1ccc(-c2nc(Cc3c[nH]c4ccccc34)nnc2-c2ccccc2)cc1 [Compound 85, 4-(3-((1H-Indol-3-yl)methyl)-6-phenyl-1,2,4-triazin-5-yl)-N-(2-hydroxyethyl)benzamide]	28.8	–	–
Cc1nnc(Cc2c[nH]c3ccccc23)nc1-c1ccccc1 [Compound 28, 3-[(6-Methyl-5-phenyl-1,2,4-triazin-3-yl)methyl]-1H-indole]	10200	–	LLE (human GPR84 [2]): 1.73
NC(=O)CNC(=O)c1ccc(-c2nc(Cc3c[nH]c4ccccc34)nnc2-c2ccccc2)cc1 [Compound 90, 4-(3-((1H-Indol-3-yl)methyl)-6-phenyl-1,2,4-triazin-5-yl)-N-(2-amino-2-oxoethyl)benzamide]	380	–	–
c1ccc(-c2nc[nH]c2-c2ccccc2)cc1 [DPI, 4,5-Diphenylimidazole, reference compound]	–	–	solubility kinetic (physchem; [3]): 27 µM (≈ 5.95 µg/mL); solubility kinetic (physchem; [4]): 30 µM (≈ 6.61 µg/mL); solubility kinetic (physchem; [5]): 25 µM (≈ 5.51 µg/mL); solubility kinetic (physchem; [6]): 28 µM (≈ 6.17 µg/mL); solubility kinetic (physchem; [7]): 28 µM (≈ 6.17 µg/mL); solubility kinetic (physchem; [8]): 32 µM (≈ 7.05 µg/mL)
CN1CCN(C(=O)c2ccc(-c3nc(Cc4c[nH]c5ccccc45)nnc3-c3ccccc3)cc2)CC1=O [Compound 89, 4-(4-(3-((1H-Indol-3-yl)methyl)-6-phenyl-1,2,4-triazin-5-yl)benzoyl)-1-methylpiperazin-2-one]	490	–	–
CN(C)CCNC(=O)c1ccc(-c2nc(Cc3c[nH]c4ccccc34)nnc2-c2ccccc2)cc1 [Compound 84, 4-(3-((1H-Indol-3-yl)methyl)-6-phenyl-1,2,4-triazin-5-yl)-N-(2-(dimethylamino)ethyl)benzamide]	1000	–	–
CC(=O)NCCNC(=O)c1ccc(-c2nc(Cc3c[nH]c4ccccc34)nnc2-c2ccccc2)cc1 [Compound 88, 4-(3-((1H-Indol-3-yl)methyl)-6-phenyl-1,2,4-triazin-5-yl)-N-(2-acetamidoethyl)benzamide]	209	–	–
Cc1nc(Cc2c[nH]c3ccccc23)nnc1-c1ccccc1 [Compound 29, 3-[(5-Methyl-6-phenyl-1,2,4-triazin-3-yl)methyl]-1H-indole]	5620	–	LLE (human GPR84 [2]): 1.99
CN1CCN(C(=O)c2ccc(-c3nc(Cc4c[nH]c5ccccc45)nnc3-c3ccccc3)cc2)CC1 [Compound 86, (4-(3-((1H-Indol-3-yl)methyl)-6-phenyl-1,2,4-triazin-5-yl)phenyl)(4-methylpiperazin-1-yl)methanone]	955	–	–
CN(C)CCNC(=O)c1ccc(-c2nnc(Cc3c[nH]c4ccccc34)nc2-c2ccccc2)cc1 [Compound 75, 4-(3-((1H-Indol-3-yl)methyl)-5-phenyl-1,2,4-triazin-6-yl)-N-(2-(dimethylamino)ethyl)benzamide]	–	5.54 ± 0.10	–
CNC(=O)c1ccc(-c2nc(Cc3c[nH]c4cnccc34)nnc2-c2ccccc2)cc1 [Compound 67, 4-(3-((1H-Pyrrolo[2,3-c]pyridin-3-yl)methyl)-6-phenyl-1,2,4-triazin-5-yl)-N-methylbenzamide]	–	6.48 ± 0.04	–
c1ccc(-c2nnc(Cc3c[nH]c4ccccc34)nc2-c2ccccn2)nc1 [Compound 8, 3-((5,6-Di(pyridin-2-yl)-1,2,4-triazin-3-yl)methyl)-1H-indole]	–	5.70 ± 0.21	–
CCCCCc1nnc(-c2ccccc2)c(-c2ccccc2)n1 [Compound 21, 3-Pentyl-5,6-diphenyl-1,2,4-triazine]	–	5.12 ± 0.05	–
O=C(O)c1ccc(-c2nnc(Cc3c[nH]c4ccccc34)nc2-c2ccccc2)cc1 [Compound 52, 4-(3-((1H-Indol-3-yl)methyl)-5-phenyl-1,2,4-triazin-6-yl)benzoic Acid]	–	7.06 ± 0.22	–
c1ccc(-c2nnc(CCc3cccnc3)nc2-c2ccccc2)cc1 [Compound 22, 5,6-Diphenyl-3-(2-(pyridin-3-yl)ethyl)-1,2,4-triazine]	–	5.00 ± 0.17	–

Compound	IC50 (human GPR84 [1]) [nM]	GTPγS (pIC50) (human GPR84 [2])	further results
CN1CCN(C(=O)c2ccc(-c3nnc(Cc4c[nH]c5ccccc45)nc3-c3ccccc3)cc2)CC1 [Compound 77, (4-(3-((1H-Indol-3-yl)methyl)-5-phenyl-1,2,4-triazin-6-yl)phenyl)(4-methylpiperazin-1-yl)methanone]	–	5.95 ± 0.10	–
c1ccc(-c2nnc(Cc3c[nH]c4cnccc34)nc2-c2ccnnc2)cc1 [Compound 61, 3-((6-Phenyl-5-(pyridazin-4-yl)-1,2,4-triazin-3-yl)methyl)-1H-pyrrolo[2,3-c]pyridine]	–	5.84 ± 0.10	–
c1ccc(-c2nnc(Cc3cnc4ccccn34)nc2-c2ccccc2)cc1 [Compound 20, 3-((5,6-Diphenyl-1,2,4-triazin-3-yl)methyl)imidazo[1,2-a]pyridine]	–	5.44 ± 0.09	–
O=C(c1ccc(-c2nc(Cc3c[nH]c4ccccc34)nnc2-c2ccccc2)cc1)N1CCOCC1 [Compound 83, (4-(3-((1H-Indol-3-yl)methyl)-6-phenyl-1,2,4-triazin-5-yl)phenyl)(morpholino)methanone]	209	–	–
CC(=O)NCc1ccc(-c2nc(Cc3c[nH]c4ccccc34)nnc2-c2ccccc2)cc1 [Compound 45, N-(4-(3-((1H-Indol-3-yl)methyl)-6-phenyl-1,2,4-triazin-5-yl)benzyl)acetamide]	–	6.93 ± 0.06	–
O=C(O)c1cccc(-c2nc(Cc3c[nH]c4ccccc34)nnc2-c2ccccc2)c1 [Compound 55, 3-(3-((1H-Indol-3-yl)methyl)-6-phenyl-1,2,4-triazin-5-yl)benzoic Acid]	–	4.99 ± 0.32	–
CC(C)c1nnc(Cc2c[nH]c3ccccc23)nc1C(C)C [Compound 9, 3-((5,6-Diisopropyl-1,2,4-triazin-3-yl)methyl)-1H-indole]	–	5.38 ± 0.05	–
CC(=O)OCc1ccc(-c2nnc(Cc3c[nH]c4ccccc34)nc2-c2ccccc2)cc1 [Compound 38, 4-(3-((1H-Indol-3-yl)methyl)-5-phenyl-1,2,4-triazin-6-yl)benzyl Acetate]	–	8.06 ± 0.27	–
CN(C)Cc1ccc(-c2nc(Cc3c[nH]c4ccccc34)nnc2-c2ccccc2)cc1 [Compound 43, 1-(4-(3-((1H-Indol-3-yl)methyl)-6-phenyl-1,2,4-triazin-5-yl)phenyl)-N,N-dimethylmethanamine]	–	6.20 ± 0.05	–
COCCNC(=O)c1ccc(-c2nc(Cc3c[nH]c4ccccc34)nnc2-c2ccccc2)cc1 [Compound 87, 4-(3-((1H-Indol-3-yl)methyl)-6-phenyl-1,2,4-triazin-5-yl)-N-(2-methoxyethyl)benzamide]	72.4	–	–
c1csc(-c2nnc(Cc3c[nH]c4ccccc34)nc2-c2cccs2)c1 [Compound 11, 3-((5,6-Di(thiophen-2-yl)-1,2,4-triazin-3-yl)methyl)-1H-indole]	–	7.62 ± 0.05	–
c1ccc(-c2nnc(NCc3cccnc3)nc2-c2ccccc2)cc1 [Compound 24, 5,6-Diphenyl-N-(pyridin-3-ylmethyl)-1,2,4-triazin-3-amine]	–	5.47 ± 0.05	–
CC(=O)OCc1ccc(-c2nc(Cc3c[nH]c4ccccc34)nnc2-c2ccccc2)cc1 [Compound 37, 4-(3-((1H-Indol-3-yl)methyl)-6-phenyl-1,2,4-triazin-5-yl)benzyl Acetate]	–	8.30 ± 0.35	–
CC(=O)NCc1ccc(-c2nnc(Cc3c[nH]c4ccccc34)nc2-c2ccccc2)cc1 [Compound 46, N-(4-(3-((1H-Indol-3-yl)methyl)-5-phenyl-1,2,4-triazin-6-yl)benzyl)acetamide]	–	7.98 ± 0.06	–
c1ccc(-c2nnc(Cc3c[nH]c4ccccc34)nc2-c2ccc(CN3CCOCC3)cc2)cc1 [Compound 41, 4-(4-(3-((1H-Indol-3-yl)methyl)-6-phenyl-1,2,4-triazin-5-yl)benzyl)morpholine]	–	7.51 ± 0.28	–
CNS(=O)(=O)c1ccc(-c2nc(Cc3c[nH]c4ccccc34)nnc2-c2ccccc2)cc1 [Compound 33, 4-(3-((1H-Indol-3-yl)methyl)-6-phenyl-1,2,4-triazin-5-yl)-N-methylbenzenesulfonamide]	–	6.49 ± 0.05	–
